In patent publication US7951778B2, “Use of compounds having the biological activity of vasoactive intestinal peptide for the treatment of sarcoidosis” (mondoBIOTECH AG, priority 2002, dated 2011):

Assays:
Type in all cases: in vivo, human
[1] = tested on: patient with severe sarcoidosis stadium 3 and secondary pulmonary hypertension; experiment: Lung function parameters before and after 12 weeks VIP inhalation; settings: after treatment, VIP inhalation 200 μg per day
Description: (§1) A patient with severe sarcoidosis stadium 3 and secondary pulmonary hypertension was under therapy with cortocosteroids, furosemid, oxygen and an anticoagulant. Right heart catheterization (Swan-Ganz, Baxter, Irvine, Calif., USA) was performed to measure mean pulmonary artery pressure (mPAP), cardiac output (CO), mean arterial pressure (MAP), pulmonary capillary wedge pressure (PCWP) mixed venous oxygen saturation (SvO2%) and systemic arterial oxygen pressure (PaO2%) for and after treatment with VIP inhalation (200 μg in 12 ml 0.9% NaCl per day, 4×3 ml per inhalation) for 12 weeks. FEV1 (forced expiratory volume in one second), FVC (forced vital capacity), TLC (total lung capacity), AaDO2 (arterial-alveolar oxygen difference) of sarcoidosis patient is measured according to standard methods for and after treatment with VIP (200 μg in 12 ml 0.9% NaCl per day) for 12 weeks. VIP was inhaled for 12 weeks via the MicroDrop Master Jet (MPV, Truma, Germany) using a particle size of 3 μm to provide alveolar deposition of the substance.
(§2) Hemodynamic and lung function parameters of the sarcoidosis patient before and after the treatment with VIP for 12 weeks are summary in Table 2.

[2] = tested on: patient with severe sarcoidosis stadium 3 and secondary pulmonary hypertension; experiment: 6-minutes walk test
Description: as §1
In the 6-minutes walk test, the patient improved from 210 meters before treatment to 350 meters after the treatment

[3] = tested on: patient with severe sarcoidosis stadium 3 and secondary pulmonary hypertension; experiment: Hemodynamic parameters by right heart catheterization before and after 12 weeks VIP inhalation; settings: VIP inhalation 200 μg per day
Description: as §1, §2

## His-Ser-Asp-Ala-Val-Phe-Thr-Asp-Asn-Tyr-Thr-Arg-Leu-Arg-Lys-Gln-Met-Ala-Val-Lys-Lys-Tyr-Leu-Asn-Ser-Ile-Leu-Asn [VIP]
[1]; before treatment 1.2
  FEV1 (forced expiratory volume in one second): 1.1 L
[1]; before treatment 1.4
  FVC (forced vital capacity): 1.3
[1]; before treatment 2.3
  TLC (total lung capacity): 2.7
[1]; before treatment 39.0
  AaDO2 (arterial-alveolar oxygen difference): 37.0
[2]; after the treatment with VIP for 12 weeks, 210 meters before treatment
  6-minutes walk test distance: 350 meters
[2]; after treatment, VIP inhalation 200 μg per day, 12 weeks, before treatment 210
  6-Min.WT: 350
[3]; after treatment, before treatment 2.1
  CI: 2.7
[3]; after treatment, before treatment 3.9
  CO (cardiac output): 4.9
[3]; after treatment, before treatment 47.0
  PaO2 (systemic arterial oxygen pressure): 54.0
[3]; after treatment, before treatment 49.4
  SvO2 (mixed venous oxygen saturation): 53.0
[3]; after treatment, before treatment 55.0
  PaCO2: 52.0
[3]; after treatment, before treatment 83.2
  SaO2: 88.0
[3]; after treatment, before treatment 84.0
  mAP (mean arterial pressure): 98.0
[3]; first PCWP line of Table 2, after treatment, before treatment 10
  PCWP (pulmonary capillary wedge pressure): 10
[3]; first PVR line of Table 2, after treatment, before treatment 923
  PVR: 359
[3]; first mPAP line of Table 2, after treatment, before treatment 55
  mPAP (mean pulmonary artery pressure): 32
[3]; second PCWP line of Table 2, after treatment, before treatment 6.0
  PCWP (pulmonary capillary wedge pressure): 7.0
[3]; second PVR line of Table 2, after treatment, before treatment 985.0
  PVR: 313.0
[3]; second mPAP line of Table 2, after treatment, before treatment 54.0
  mPAP (mean pulmonary artery pressure): 26.0
